Patent US8877747B2, “Indenone derivative and pharmaceutical composition comprising same” (Korea Research Institute of Chemical Technology, priority 2009, dated 2014)
Where a name gives a salt, the structure may show the parent alone.

test system: MC3T3-E1 cells; test: ALP activity, differentiation of osteoblast cells; format: cell-based; conditions: Mus musculus, MC3T3-E1, 144 h; MC3T3E1 cells treated with 10 μM compound and OF; relates activity to OF-only group (100%); higher = more efficacious
Method: To examine the effects of the inventive indenone derivatives on the differentiation and activation of osteoblast cells, the activity and expression of alkaline phosphatase (ALP), a marker for the differentiation of osteoblast cells, and the bone nodule formation using a mouse derived osteoblast-like cells, MC3T3-E1 (ATCC, Japan) or a primary mouse calvaria derived preosteoblastic cells were observed.
MC3T3-E 1 cells were seeded in a medium containing osteogenic factors (OF) such as ascorbic acids and β-glycerophosphates (b-GP), and each compound of Examples was added thereto at a concentration of 0.1, 1 and 10 μM. The cells were incubated for 6 days (MC3T3-E1 cells) or 7 days (primary mouse calvaria derived preosteoblastic cells) in a 37° C. CO2 incubator. Then, the culture medium was replaced with a fresh medium together with the test compound every two or three days. On the last day, the medium was centrifuged to remove the supernatant, and the cells were washed with PBS. The washed cells were subjected to a 3-cycle freege-thaw treatment using a −70° C. deep freezer to allow enzymes elute in a lysis buffer. The lysed protein was quantified, followed by measurement of ALP activity using 4-nitrophenylphosphate.
Further, a group treated only with DMSO or OF was tested for ALP activities for comparison.

For `CS(=O)(=O)N1CCN(CCOc2ccc3c(c2)C(=O)C(c2cccnc2)=C3c2cc(F)cc(F)c2)CC1` [Example 59, 3-(3,5-difluorophenyl)-6-(2-(4-(methylsulfonyl)piperazin-1-yl)ethoxy)-2-(pyridin-3-yl)-1H-inden-1-one hydrochloride salt], which activity at 10 µM is on record?
The activity at 10 µM was 254%.

Which activity at 10 µM does the source give for `CN(C)CCCOc1ccc2c(c1)C(=O)C(c1cccnc1)=C2c1cc(F)cc(F)c1` [Example 60, 3-(3,5-difluorophenyl)-6-(3-(dimethylamino)propoxy)-2-(pyridin-3-yl)-1H-inden-1-one hydrochloride salt] here?
Its activity at 10 µM is 19%.

With `O=C1C(c2cccnc2)=C(c2cc(F)cc(F)c2)c2ccc(OCCc3ccccc3)cc21` [Example 61, 3-(3,5-difluorophenyl)-6-phenethoxy-2-(pyridin-3-yl)-1H-inden-1-one hydrochloride salt] as the compound, how does the activity at 10 µM read?
Its activity at 10 µM is 113%.

For `O=C1C(c2cccnc2)=C(c2cc(F)cc(F)c2)c2ccc(OCCc3ccccn3)cc21` [Example 62, 3-(3,5-difluorophenyl)-6-(2-(pyridin-2-yl)ethoxy)-2-(pyridin-3-yl)-1H-inden-1-one hydrochloride salt], which activity at 10 µM is on record?
Its activity at 10 µM is 90%.

For `O=C1C(c2cccnc2)=C(c2cc(F)cc(F)c2)c2ccc(OCCN3CCCCC3)cc21` [Example 63, 3-(3,5-difluorophenyl)-6-(2-(piperidin-1-yl)ethoxy)-2-(pyridin-3-yl)-1H-inden-1-one hydrochloride salt], which activity at 10 µM is on record?
Its activity at 10 µM is 53%.

With `CC(C)(C)OC(=O)N1CCN(CCCOc2ccc3c(c2)C(=O)C(c2cccnc2)=C3c2cc(F)cc(F)c2)CC1` [Example 64, tert-butyl 4-(3-(3-(3,5-difluorophenyl)-1-oxo-2-(pyridin-3-yl)-1H-inden-6-yloxy)propyl)piperazine-1-carboxylate] as the compound, how does the activity at 10 µM read?
Its activity at 10 µM is 34%.

Which activity at 10 µM does the source give for `CN1CCN(CCCOc2ccc3c(c2)C(=O)C(c2cccnc2)=C3c2cc(F)cc(F)c2)CC1` [Example 65, 3-(3,5-difluorophenyl)-6-(3-(4-methylpiperazin-1-yl)propoxy)-2-(pyridin-3-yl)-1H-inden-1-one hydrochloride salt] here?
Its activity at 10 µM is 19%.

With `O=C1C(c2cccnc2)=C(c2cc(F)cc(F)c2)c2ccc(OCCCN3CCNCC3)cc21` [Example 66, 3-(3,5-difluorophenyl)-6-(3-(piperazin-1-yl)propoxy)-2-(pyridin-3-yl)-1H-inden-1-one hydrochloride salt] as the compound, how does the activity at 10 µM read?
The activity at 10 µM was 70%.

For `CC(=O)N1CCN(CCCOc2ccc3c(c2)C(=O)C(c2cccnc2)=C3c2cc(F)cc(F)c2)CC1` [Example 67, 6-(3-(4-acetylpiperazin-1-yl)propoxy)-3-(3,5-difluorophenyl)-2-(pyridin-3-yl)-1H-inden-1-one hydrochloride salt], which activity at 10 µM is on record?
The activity at 10 µM was 116%.

How did the activity at 10 µM turn out when `CS(=O)(=O)N1CCN(CCCOc2ccc3c(c2)C(=O)C(c2cccnc2)=C3c2cc(F)cc(F)c2)CC1` [Example 68, 3-(3,5-difluorophenyl)-6-(3-(4-(methylsulfonyl)piperazin-1-yl)propoxy)-2-(pyridin-3-yl)-1H-inden-1-one hydrochloride salt] was run?
Its activity at 10 µM is 164%.

How did the activity at 10 µM turn out when `CC(C)(C)OC(=O)N1CCC(CCOc2ccc3c(c2)C(=O)C(c2cccnc2)=C3c2cc(F)cc(F)c2)CC1` [Example 69, tert-butyl 4-(2-(3-(3,5-difluorophenyl)-1-oxo-2-(pyridin-3-yl)-1H-inden-6-yloxy)ethyl)piperidine-1-carboxylate] was run?
The activity at 10 µM was 72%.

With `O=C1C(c2cccnc2)=C(c2cc(F)cc(F)c2)c2ccc(OCCC3CCNCC3)cc21` [Example 70, 3-(3,5-difluorophenyl)-6-(2-(piperidin-4-yl)ethoxy)-2-(pyridin-3-yl)-1H-inden-1-one hydrochloride salt] as the compound, how does the activity at 10 µM read?
Its activity at 10 µM is 19%.

`CN1CCC(CCOc2ccc3c(c2)C(=O)C(c2cccnc2)=C3c2cc(F)cc(F)c2)CC1` [Example 71, 3-(3,5-difluorophenyl)-6-(2-(1-methylpiperidin-4-yl)ethoxy)-2-(pyridin-3-yl)-1H-inden-1-one hydrochloride salt] was tested. Which activity at 10 µM did it give?
Its activity at 10 µM is 19%.

For `CC(=O)N1CCC(CCOc2ccc3c(c2)C(=O)C(c2cccnc2)=C3c2cc(F)cc(F)c2)CC1` [Example 72, 6-(2-(1-acetylpiperidin-4-yl)ethoxy)-3-(3,5-difluorophenyl)-2-(pyridin-3-yl)-1H-inden-1-one hydrochloride salt], which activity at 10 µM is on record?
Its activity at 10 µM is 58%.

With `CS(=O)(=O)N1CCC(CCOc2ccc3c(c2)C(=O)C(c2cccnc2)=C3c2cc(F)cc(F)c2)CC1` [Example 73, 3-(3,5-difluorophenyl)-6-(2-(1-(methylsulfonyl)piperidin-4-yl)ethoxy)-2-(pyridin-3-yl)-1H-inden-1-one hydrochloride salt] as the compound, how does the activity at 10 µM read?
The activity at 10 µM was 150%.

`O=C1C(c2cccnc2)=C(c2cc(F)cc(F)c2)c2ccc(OCCN3CCS(=O)(=O)CC3)cc21` [Example 74, 6-[2-(1,1-dioxothiomorpholin-4-yl)ethoxy]-3-(3,5-difluorophenyl)-2-(pyridin-3-yl)-1H-inden-1-one hydrochloride salt] was tested. Which activity at 10 µM did it give?
Its activity at 10 µM is 206%.

For `O=C1C(c2cccnc2)=C(c2cc(F)cc(F)c2)c2ccc(OCCC3CCOCC3)cc21` [Example 78, 3-(3,5-difluorophenyl)-2-(pyridin-3-yl)-6-(2-(tetrahydro-2H-pyran-4-yl)ethoxy)-1H-inden-1-one], which activity at 10 µM is on record?
The activity at 10 µM was 187%.

Which activity at 10 µM does the source give for `O=C1C(c2cccnc2)=C(c2cc(F)cc(F)c2)c2ccc(OCC3CCCO3)cc21` (centres unmarked) [Example 79, 3-(3,5-difluorophenyl)-2-(pyridin-3-yl)-6-((tetrahydrofuran-2-yl)methoxy)-1H-inden-1-one] here?
The activity at 10 µM was 110%.

Which activity at 10 µM does the source give for `O=C1C(c2cccnc2)=C(c2ccccc2F)c2ccc(OCCN3CCOCC3)cc21` [Example 80, 6-(2-morpholinoethoxy)-3-(2-fluorophenyl)-2-(pyridin-3-yl)-1H-inden-1-one] here?
The activity at 10 µM was 74%.

`O=C1C(c2cccnc2)=C(c2cccc(F)c2)c2ccc(OCCN3CCOCC3)cc21` [Example 81, 6-(2-morpholinoethoxy)-3-(3-fluorophenyl)-2-(pyridin-3-yl)-1H-inden-1-one] was tested. Which activity at 10 µM did it give?
Its activity at 10 µM is 116%.

Which activity at 10 µM does the source give for `O=C1C(c2cccnc2)=C(c2ccc(F)cc2F)c2ccc(OCCN3CCOCC3)cc21` [Example 82, 6-(2-morpholinoethoxy)-3-(2,4-difluorophenyl)-2-(pyridin-3-yl)-1H-inden-1-one] here?
Its activity at 10 µM is 178%.

Which activity at 10 µM does the source give for `O=C1C(c2ccccn2)=C(c2ccccc2)c2ccc(OCCN3CCOCC3)cc21` [Example 83, 6-(2-morpholinoethoxy)-3-phenyl-2-(pyridin-2-yl)-1H-inden-1-one] here?
The activity at 10 µM was 18%.

`O=C1C(c2ccc3c(c2)OCO3)=C(c2ccccc2)c2ccc(OCCN3CCOCC3)cc21` [Example 85, 2-(benzo[1,3]dioxol-5-yl)-6-(2-morpholinoethoxy)-3-phenyl-1H-inden-1-one] was tested. Which activity at 10 µM did it give?
The activity at 10 µM was 77%.

Which activity at 10 µM does the source give for `O=C1C(c2ccc(Cl)s2)=C(c2ccccc2)c2ccc(OCCN3CCOCC3)cc21` [Example 86, 2-(5-chlorothiophen-2-yl)-6-(2-morpholinoethoxy)-3-phenyl-1H-inden-1-one] here?
Its activity at 10 µM is 77%.

How did the activity at 10 µM turn out when `Cn1ccc2cc(C3=C(c4ccccc4)c4ccc(OCCN5CCOCC5)cc4C3=O)ccc21` [Example 87, 2-(1-methyl-1H-indol-5-yl)-6-(2-morpholinoethoxy)-3-phenyl-1H-inden-1-one] was run?
Its activity at 10 µM is 71%.

How did the activity at 10 µM turn out when `O=C1C(c2ccc[nH]2)=C(c2ccccc2)c2ccc(OCCN3CCOCC3)cc21` [Example 90, 6-(2-morpholinoethoxy)-3-phenyl-2-(1H-pyrrol-2-yl)-1H-inden-1-one] was run?
The activity at 10 µM was 63%.
